In patent publication US5594027A, “Aminocycloalkanobenzodioxoles as beta-3 selective adrenergic agents” (American Cyanamid Company, priority 1995, dated 1997):
Structures can show the parent of a compound that is named as a salt.

Tests used:
β3-adrenergic receptor = molecular target: T1, β3-adrenergic receptor (Rattus norvegicus, UniProt P26255); test: Stimulation of adipocyte lipolysis (β3-effect), glycerol generated; type: cell-based; settings: rat epididymal adipocytes, 30 min at 37° C.; concentration giving 50% of the compound's own maximum rate of lipolysis; read-out: Lipolysis (beta3)(EC50 nM)
T1 construct: Rat epididymal fat pads are excised and placed in 0.9% saline; from tissue; host or cells: adipocytes isolated by collagenase from rat epididymal fat pads
Text: (§1) β-Adrenergic receptors can be divided into β1, β2 and β 3-subtypes. Activation of β1 -receptors invokes increases in heart rate while activation of β2 -receptors stimulates glycogen breakdown in muscle and thereby prevents glycogen synthesis. Activation of β3 -receptors stimulates lipolysis (the breakdown of adipose tissue triglycerides to glycerol and free fatty acids), and thereby promotes the loss of fat mass. Ccmpounds that stimulate β3 -receptors will have antiobesity activity. In addition, they have hypoglycemic or anti-diabetic activity, but the mechanism of this effect is unknown. A compound that selectively stimulates β3 -receptors, i.e. has little or no β1 or β2 -activity, will have the desired anti-diabetic and/or anti-obesity activity, but without the undesired effects of increased heart rate (β1 -effect) or muscle tremor (β2 -effect).
(§2) Selectivity of a compound is determined using the following procedures.
The β3 -effect of the compounds is determined by their ability to stimulate adipocyte lipolysis. Rat epididymal fat pads are excised and placed in 0.9% saline. Four grams of tissue is transferred to a flask with 20 ml of aerated Krebs-Henseleit bicarbonate (KHB) buffer containing 3% fatty acid-free bovine serum albumin to which 75 mg of crude bacterial collagenase (Worthington) has been added. The tissue is incubated for about 45 minutes at 37° C. with gentle shaking. The cells are then washed three times with two volumes of KHB buffer, filtered through two layers of gauze, and brought to a final volume of 80 ml with KHB buffer. One ml aliquots of the cell suspension is added to plastic test tubes containing the appropriate additions of vehicle or compound. The cells are gassed for 1 minute with 95%O2 -5%CO2, capped, and incubated at 37° C. with continuous shaking for a total of 30 minutes. The reaction is stopped by adding 0.1 ml of 30% perchloric acid and 0.1 ml of chloroform. After centrifugation, 0.5 ml of supernatant is transferred to another test tube and neutralized with 0.04 ml of 3M K2 CO3 -0.5M triethanolamine. The amount of glycerol generated from the hydrolysis of endogenous triglycerides is determined in a coupled-enzyme spectrophotometric assay. One-tenth milliliter of the neutralized extract is added to a test tube that contains 0.91 ml of assay mixture comprised of the following: 0.84M glycine, 0.42M hydrazine sulfate, 4.2 mM EDTA, 0.9 mM β-NAD, 9.9 mM MgCl2, 1 mM ATP, 17 U of glycerophosphate dehydrogenase, and 4.3 U of glycerokinase. The test tubes are incubated for 40 minutes at 37° C. with constant shaking. The amount of NADH generated, which is proportional to the amount of glycerol, is determined by the increase in absorbance at 340 nm. […]

β1-adrenergic receptor = molecular target: T2, β1-adrenergic receptor (Rattus norvegicus, UniProt P18090); test: Heart membrane binding (β1-effect), [125I]iodocyanopindolol; settings: rat heart membranes, 1 hour
T2 construct: membranes from rat heart; from tissue; host or cells: rat heart membranes
Text: as §1, §2
Binding assays for β1 -effect are carried out by the use of membranes from rat heart, and β2 -effect by the use of membranes from rat lung by the method described in Neve, et al., J. Pharmacol. Exp. Ther., 1985, 235, 657-664 with the following exceptions:
1. the incubation volume is 0.5 ml,
2. the incubation time is 1 hour,
3. the radioligand is [^125 I]iodocyanopindolol,
4. (-)-isoproterenol (50 μM) is used to define specific binding, and
5. the filters are washed at 4° C.

T1 sequence (P26255 whole entry): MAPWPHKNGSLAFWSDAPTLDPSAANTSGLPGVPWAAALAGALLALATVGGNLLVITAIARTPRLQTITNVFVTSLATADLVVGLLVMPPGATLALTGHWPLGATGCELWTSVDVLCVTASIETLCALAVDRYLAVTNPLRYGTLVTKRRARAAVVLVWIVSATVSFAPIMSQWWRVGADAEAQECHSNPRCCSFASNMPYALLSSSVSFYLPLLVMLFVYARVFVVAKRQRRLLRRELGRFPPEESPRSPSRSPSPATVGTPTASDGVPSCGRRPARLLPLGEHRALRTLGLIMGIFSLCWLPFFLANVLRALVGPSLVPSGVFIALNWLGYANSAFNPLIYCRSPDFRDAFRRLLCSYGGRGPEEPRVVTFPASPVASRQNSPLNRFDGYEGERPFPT
T2 sequence (P18090 whole entry): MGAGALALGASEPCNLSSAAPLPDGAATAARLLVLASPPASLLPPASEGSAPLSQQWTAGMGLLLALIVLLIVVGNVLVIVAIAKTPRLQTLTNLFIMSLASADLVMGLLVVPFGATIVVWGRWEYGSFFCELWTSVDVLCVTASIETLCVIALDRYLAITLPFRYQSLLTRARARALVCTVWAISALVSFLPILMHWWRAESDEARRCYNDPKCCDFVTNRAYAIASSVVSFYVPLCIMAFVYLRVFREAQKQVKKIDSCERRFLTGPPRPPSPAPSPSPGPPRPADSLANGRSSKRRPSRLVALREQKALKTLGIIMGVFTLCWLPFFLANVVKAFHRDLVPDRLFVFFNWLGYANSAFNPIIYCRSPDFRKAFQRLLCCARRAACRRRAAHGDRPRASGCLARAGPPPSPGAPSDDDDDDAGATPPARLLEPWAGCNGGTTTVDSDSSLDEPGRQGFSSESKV

EC50 (β3-adrenergic receptor) [nM] | IC50 (β1-adrenergic receptor) [nM] | Structure (SMILES)
2590 | > 1000 | O=C(O)C1(C(=O)O)Oc2ccc3c(c2O1)C[C@@H](NC[C@H](O)c1cccc(Cl)c1)C3 [Example 3, [R-(R*,R* or R*,S*)]7-[[2-(3-Chlorophenyl)-2-hydroxyethyl]amino]-7,8-dihydro-6H-indeno[4,5-d]-1,3-dioxole-2,2-dicarboxylic acid disodium salt]
14.6 | > 1000 | O=C(O)C1(C(=O)O)Oc2ccc3c(c2O1)C[C@H](NC[C@H](O)c1cccc(Cl)c1)C3 [Example 4, [R-(R*,R* or R*,S*)]-7-[[2-(3-Chlorophenyl)-2-hydroxyethyl]amino]-7,8-dihydro-6H-indeno[4,5-d]-1,3-dioxole-2,2-dicarboxylic acid disodium salt]
100 | > 1000 | O=C(O)C1(C(=O)O)Oc2cc3c(cc2O1)CC(NC[C@H](O)c1cccc(Cl)c1)C3 [Example 5, (R)-7-[[2-(3-Chlorophenyl)-2-hydroxyethyl]amino]7,8-dihydro-6H-indeno[5,6-d]-1,3-dioxole-2,2-dicarboxylic acid disodium salt]
4000 | > 1000 | O=C(O)C1(C(=O)O)Oc2cc3c(cc2O1)CC(NCC(O)c1cccc(Cl)c1)CC3 (stereo not drawn) [Example 7, (R*,R*), and (R*,S*)-6-[[2-(3-Chlorophenyl)-2-hydroxyethyl]amino]-5,6,7,8-tetrahydronaphtho[2,3-d]-1,3-dioxole-2,3-dicarboxylic acid disodium salt]
